Test results as given in US20250166176A1, “METHODS AND MATERIALS FOR IMAGING ADIPOSE TISSUE” (CellSight Technologies Inc., priority 2022, published 2025).

Columns and labels:
Format in all cases: in vivo
[1] = system: iBAT; experiment: [18F]F-AraG PET imaging of iBAT in mice with GBM tumors; details: one GBM mouse with highest neuroinflammation
Source text: During our studies into the utility of ^18F-AraG in assessing intracranial T cell infiltration in glioblastoma multiforme (GBM) we made the unexpected and surprising discovery that ^18F-AraG can also image and/or assess the activation of adipose tissue (FIG. 2). Adipose, or fat, tissue (AT) was once considered an inert tissue that primarily existed to store lipids, and was not historically recognized as an important organ in the regulation and maintenance of health. With the rise of obesity and more rigorous research, AT is now recognized as a highly complex metabolic organ involved in a host of important physiological functions, including glucose homeostasis and a multitude of endocrine capabilities. […] The study of AT can provide useful insights in developing strategies to combat these highly prevalent metabolic diseases.
[^18F]F-AraG ability to track stimulated adipocytes allowed observation of activated iBAT in mice with bioluminescently-tagged GBM tumors. The activation occurred at different time points and varied in intensity.

[2] = system: intrascapular BAT (iBAT); experiment: [18F]F-AraG and FDG PET imaging of BAT in mice treated with BRL37344, insulin or vehicle
[3] = system: BAT and marrow adipose tissue; experiment: [18F]F-AraG PET imaging after chronic dosing with BRL37344; details: mice, 3 days+1 h prior to imaging

Row | SMILES | iBAT [18F]F-AraG signal ([1]; OnTx3) [% ID/g] | iBAT [18F]F-AraG signal ([1]; PreTx) [% ID/g] | [18F]F-AraG uptake in iBAT ([2]; control animals) [% ID/g] | [18F]F-AraG uptake in iBAT ([2]; insulin-treated mice) [% ID/g] | accumulation of [18F]F-AraG in intrascapular BAT (iBAT) ([2]; mice, BRL37344 administered one hour prior to imaging) [% ID/g] | effect of chronic dosing on [18F]F-AraG signal (in words) [3]
1 | Nc1nc2c(ncn2[C@@H]2O[C@H](CO)[C@@H](O)[C@@H]2[18F])c(=O)[nH]1 [[^18F]F-AraG, [18F]-F-arabinofuranosyl guanine] | 14.92 | 1.70 | 4.11±0.76 | 3.36±0.62 | 10.98±1.64 | –
2 | C[C@H](Cc1ccc(OCC(=O)O)cc1)NC[C@H](O)c1cccc(Cl)c1 [BRL37344] | – | – | – | – | – | increase in [^18F]F-AraG signal not only in the classical, intrascapular BAT. but also in lumbar spinal cord and proximal tibia
